Test results reported in patent publication US20240279220A1, “INDOLE COMPOUNDS AND METHODS OF USE” (Genzyme Corporation, priority 2021, published 2024).

What follows are molecules tested on NBD1/3D (assay: Aggregation analysis using differential static light scattering (DSLS), NBD1 thermal stability). Settings: ΔTagg versus DMSO control; compound at 100 μM.
Assay type: binding, Human
Procedure, shortened: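 Purified NBD1 at 0.2 mg/ml in S200 buffer (pH 7.6, 2 mM ATP, 5 mM MgCl2, 1% glycerol) was heated with compound at 1 °C/min to 70 °C. Tagg taken from the light-scattering curve inflection point; ΔTagg = compound Tagg minus mean DMSO control Tagg.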
`CC(CC#N)(c1cccc(CCC(=O)O)c1)c1cnc(-c2cc(Oc3c(F)cc4[nH]ccc4c3S(C)(=O)=O)ccc2F)[nH]1` (stereo not shown) [Example 76, 3-(3-(1-Cyano-2-(2-(2-fluoro-5-((6-fluoro-4-(methylsulfonyl)-1H-indol-5-yl)oxy)phenyl)-1H-imidazol-5-yl)propan-2-yl)phenyl)propanoic acid] was tested, and the “DSLS NBD1/3D Human Stability delta-T (° C.) @ 100 (μM)” value (shortened to “DSLS NBD1/3D Human Stability delta-T”) was “A (A: T ≥ 10° C.)”.
With `Cc1c(Oc2ccc(F)c(-c3ncc(C(C)(C)c4cccc(CCC(=O)O)c4)[nH]3)c2)c(F)cc2[nH]ccc12` [Example 144, 3-(3-(2-(2-(2-fluoro-5-((6-fluoro-4-methyl-1H-indol-5-yl)oxy)phenyl)-1H-imidazol-5-yl)propan-2-yl)phenyl)propanoic acid] the “DSLS NBD1/3D Human Stability delta-T” value was “B (B: 5-10° C.)”.
`Cc1c(Oc2ccc(F)c(-c3nc(Cc4csc(CCC(=O)O)n4)c[nH]3)c2)c(F)cc2[nH]ccc12` [Example 89, 3-(4-((2-(2-Fluoro-5-((6-fluoro-4-methyl-1H-indol-5-yl)oxy)phenyl)-1H-imidazol-4-yl)methyl)thiazol-2-yl)propanoic acid] was tested, and the “DSLS NBD1/3D Human Stability delta-T” value was “B (B: 5-10° C.)”.
For `CC(O)(c1cccc(CCC(=O)O)c1)c1csc(-c2cccc(Oc3c(F)cc4[nH]ccc4c3S(C)(=O)=O)c2)n1` (stereo not shown) [Example 37, 3-(3-(1-(2-(3-((6-Fluoro-4-(methylsulfonyl)-1H-indol-5-yl)oxy)phenyl)thiazol-4-yl)-1-hydroxyethyl)phenyl)propanoic acid], the “DSLS NBD1/3D Human Stability delta-T” value was “B (B: 5-10° C.)”.
For `Cc1c(Oc2ccc(F)c(-c3ncc(C(C)(C#N)c4cccc(CCC(=O)O)c4)[nH]3)c2)c(F)c(F)c2[nH]ccc12` (stereo not shown) [Example 56, 3-(3-(1-cyano-1-(2-(5-((6,7-difluoro-4-methyl-1H-indol-5-yl)oxy)-2-fluorophenyl)-1H-imidazol-5-yl)ethyl)phenyl)propanoic acid], the “DSLS NBD1/3D Human Stability delta-T” value was “B (B: 5-10° C.)”.
For `CC(O)(c1cccc(CCC(=O)O)c1)c1cnc(-c2cc(Oc3c(F)cc4[nH]ccc4c3CC(F)(F)F)ccc2F)[nH]1` (stereo not shown) [Example 190, 3-(3-(1-(2-(2-fluoro-5-((6-fluoro-4-(2,2,2-trifluoroethyl)-1H-indol-5-yl)oxy)phenyl)-1H-imidazol-5-yl)-1-hydroxyethyl)phenyl) propanoic acid], the “DSLS NBD1/3D Human Stability delta-T” value was “B (B: 5-10° C.)”.
`O=C(O)CCc1cccc(Cc2cnc(-c3cc(Oc4c(F)cc5[nH]ccc5c4F)ccc3F)[nH]2)c1F` [Example 100, 3-(3-((2-(5-((4,6-Difluoro-1H-indol-5-yl)oxy)-2-fluorophenyl)-1H-imidazol-5-yl)methyl)-2-fluorophenyl)propanoic acid] was tested, and the “DSLS NBD1/3D Human Stability delta-T” value was “B (B: 5-10° C.)”.
In the case of `CC(C)(C)NCc1c(Oc2cccc(-c3ncc(C(O)c4cccc(CCC(=O)O)c4)[nH]3)c2)ccc2[nH]ccc12` (stereo not shown) [Example 263, 3-(3-((2-(3-((4-((tert-Butylamino)methyl)-1H-indol-5-yl)oxy)phenyl)-1H-imidazol-5-yl)(hydroxy)methyl)phenyl)propanoic acid], the “DSLS NBD1/3D Human Stability delta-T” value is reported as “A (A: T ≥ 10° C.)”.
In the case of `CC(O)(c1cccc(CCC(=O)O)c1)c1c[nH]c(-c2cc(Oc3c(F)cc4[nH]ccc4c3S(C)(=N)=O)ccc2F)n1` (stereo not shown) [Example 203, 3-(3-(1-(2-(2-fluoro-5-((6-fluoro-4-(S-methylsulfonimidoyl)-1H-indol-5-yl)oxy)phenyl)-1H-imidazol-4-yl)-1-hydroxyethyl)phenyl) propanoic acid], the “DSLS NBD1/3D Human Stability delta-T” value is reported as “A (A: T ≥ 10° C.)”.
In the case of `O=C(O)CCc1cccc(C2(c3csc(-c4cccc(Oc5c(F)cc6[nH]ccc6c5F)c4)n3)CCOCC2)c1` [Example 95, 3-(3-(4-(2-(3-((4,6-difluoro-1H-indol-5-yl)oxy)phenyl)thiazol-4-yl)tetrahydro-2H-pyran-4-yl)phenyl)propanoic acid], the “DSLS NBD1/3D Human Stability delta-T” value is reported as “B (B: 5-10° C.)”.
With `C[S+]([O-])c1c(Oc2cccc(-c3ncn(Cc4cccc(CCC(=O)O)c4)n3)c2)c(F)cc2[nH]ccc12` (stereo not shown) [Example 33, 3-(3-((3-(3-((6-Fluoro-4-(methylsulfinyl)-1H-indol-5-yl)oxy)phenyl)-1H-1,2,4-triazol-1-yl)methyl)phenyl)propanoic acid] the “DSLS NBD1/3D Human Stability delta-T” value was “B (B: 5-10° C.)”.
`OCCCc1cccc(Cc2cnc(-c3cc(Oc4c(F)cc5[nH]ccc5c4F)ccc3F)[nH]2)c1F` [Example 268, 3-(3-((2-(5-((4,6-Difluoro-1H-indol-5-yl)oxy)-2-fluorophenyl)-1H-imidazol-5-yl)methyl)-2-fluorophenyl)propan-1-ol] was tested, and the “DSLS NBD1/3D Human Stability delta-T” value was “C (C: ≤5° C.)”.
In the case of `O=C(O)CCc1cc(F)cc(C(O)c2c[nH]c(-c3cc(Oc4c(F)cc5[nH]ccc5c4F)ccc3F)n2)c1` (stereo not shown) [Example 178, 3-(3-((2-(5-((4,6-difluoro-1H-indol-5-yl)oxy)-2-fluorophenyl)-1H-imidazol-4-yl)(hydroxy)methyl)-5-fluorophenyl)propanoic acid], the “DSLS NBD1/3D Human Stability delta-T” value is reported as “B (B: 5-10° C.)”.
In the case of `CC(c1cn(C)c(-c2cc(Oc3c(F)cc4[nH]ccc4c3F)ccc2F)n1)c1cccc(CCC(=O)O)c1F` (single isomer, unassigned) [Example 278A, 3-(3-(1-(2-(5-((4,6-difluoro-1H-indol-5-yl)oxy)-2-fluorophenyl)-1-methyl-1H-imidazol-4-yl)ethyl)-2-fluorophenyl)propanoic acid], the “DSLS NBD1/3D Human Stability delta-T” value is reported as “C (C: ≤5° C.)”.
With `[2H]c1c[nH]c2c(F)c(F)c(Oc3ccc(F)c(-c4nc(C(C#N)(c5cc(F)cc(CCC(=O)O)c5)C([2H])([2H])[2H])c[nH]4)c3)c(F)c12` (single isomer, unassigned) [Example 67A, 3-(3-(1-cyano-1-(2-(2-fluoro-5-((4,6,7-trifluoro-1H-indol-5-yl-3-d)oxy)phenyl)-1H-imidazol-4-yl)ethyl-2,2,2-d3)-5-fluorophenyl)propanoic acid] the “DSLS NBD1/3D Human Stability delta-T” value was “B (B: 5-10° C.)”.
In the case of `Cc1c(Oc2cccc(-c3ncc(C(C)(O)c4cccc(CCS(C)(=O)=O)c4)[nH]3)c2)c(F)cc2[nH]ccc12` (stereo not shown) [Example 208, 1-(2-(3-((6-fluoro-4-methyl-1H-indol-5-yl)oxy)phenyl)-1H-imidazol-5-yl)-1-(3-(2-(methylsulfonyl)ethyl)phenyl)ethan-1-ol], the “DSLS NBD1/3D Human Stability delta-T” value is reported as “C (C: ≤5° C.)”.
`Cc1c(Oc2ccc(F)c(-c3ncc(C(C)(C#N)c4cccc(CCC(=O)O)c4)[nH]3)c2)c(F)c(F)c2[nH]cc(Cl)c12` (stereo not shown) [Example 57, 3-(3-(1-(2-(5-((3-chloro-6,7-difluoro-4-methyl-1H-indol-5-yl)oxy)-2-fluorophenyl)-1H-imidazol-5-yl)-1-cyanoethyl)phenyl)propanoic acid] was tested, and the “DSLS NBD1/3D Human Stability delta-T” value was “B (B: 5-10° C.)”.
In the case of `CC(C#N)(c1cccc(CCC(=O)O)c1)c1c[nH]c(-c2cc(Oc3c(F)cc4[nH]ccc4c3S(C)(=O)=O)ccc2F)n1` (stereo not shown) [Example 48, 3-(3-(1-Cyano-1-(2-(2-fluoro-5-((6-fluoro-4-(methylsulfonyl)-1H-indol-5-yl)oxy)phenyl)-1H-imidazol-4-yl)ethyl)phenyl)propanoic acid], the “DSLS NBD1/3D Human Stability delta-T” value is reported as “A (A: T ≥ 10° C.)”.
`Cc1c(Oc2ccc(F)c(-c3ccn(Cc4cccc(CCC(=O)O)c4)n3)c2)c(F)cc2[nH]ccc12` [Example 14, 3-(3-((3-(2-fluoro-5-((6-fluoro-4-methyl-1H-indol-5-yl)oxy)phenyl)-1H-pyrazol-1-yl)methyl)phenyl)propanoic acid] was tested, and the “DSLS NBD1/3D Human Stability delta-T” value was “B (B: 5-10° C.)”.
For `Cc1c(Oc2cccc(-c3ccn(C(C)c4cccc(CC(=O)O)c4)n3)c2)ccc2[nH]ccc12` (stereo not shown) [Example 4, 2-(3-(1-(3-(3-((4-methyl-1H-indol-5-yl)oxy)phenyl)-1H-pyrazol-1-yl)ethyl)phenyl)acetic acid], the “DSLS NBD1/3D Human Stability delta-T” value was “B (B: 5-10° C.)”.
For `Cc1nc(-c2cc(Oc3c(F)cc4[nH]ccc4c3F)ccc2F)[nH]c1C(O)c1cccc(CCC(=O)O)c1F` (single isomer, unassigned) [Example 179, 3-(3-((2-(5-((4,6-difluoro-1H-indol-5-yl)oxy)-2-fluorophenyl)-4-methyl-1H-imidazol-5-yl)(hydroxy)methyl)-2-fluorophenyl)propanoic acid], the “DSLS NBD1/3D Human Stability delta-T” value was “B (B: 5-10° C.)”.
For `Cc1c(Oc2ccc(F)c(-c3ncc(C4(c5cccc(CCC(=O)O)c5)CCN(CC(F)(F)F)CC4)[nH]3)c2)c(F)cc2[nH]ccc12` [Example 168, 3-(3-(4-(2-(2-fluoro-5-((6-fluoro-4-methyl-1H-indol-5-yl)oxy)phenyl)-1H-imidazol-5-yl)-1-(2,2,2-trifluoroethyl)piperidin-4-yl)phenyl)propanoic acid], the “DSLS NBD1/3D Human Stability delta-T” value was “B (B: 5-10° C.)”.
`O=C(O)CCc1cccc(Cc2c[nH]c(-c3cc(Oc4c(F)cc5[nH]ccc5c4CC(F)F)ccc3F)n2)c1` [Example 117, 3-(3-((2-(5-((4-(2,2-difluoroethyl)-6-fluoro-1H-indol-5-yl)oxy)-2-fluorophenyl)-1H-imidazol-4-yl)methyl)phenyl)propanoic acid] was tested, and the “DSLS NBD1/3D Human Stability delta-T” value was “B (B: 5-10° C.)”.
For `CC(C#N)(c1cccc(CCC(=O)O)c1)c1cnc(-c2cc(Oc3c(F)cc4[nH]cnc4c3F)ccc2F)[nH]1` (stereo not shown) [Example 62, 3-(3-(1-cyano-1-(2-(5-((4,6-difluoro-1H-benzo[d]imidazol-5-yl)oxy)-2-fluorophenyl)-1H-imidazol-5-yl)ethyl)phenyl)propanoic acid], the “DSLS NBD1/3D Human Stability delta-T” value was “B (B: 5-10° C.)”.
For `Cc1c(Oc2ccc(F)c(-c3ncc(C4(c5cccc(CCC(=O)O)c5)OCC(C)(C)CO4)[nH]3)c2)c(F)cc2[nH]ccc12` [Example 230, 3-(3-(2-(2-(2-fluoro-5-((6-fluoro-4-methyl-1H-indol-5-yl)oxy)phenyl)-1H-imidazol-5-yl)-5,5-dimethyl-1,3-dioxan-2-yl)phenyl)propanoic acid], the “DSLS NBD1/3D Human Stability delta-T” value was “A (A: T ≥ 10° C.)”.
